Experimental data taken from US3963735A, “Acylated 2-aminothiazole derivatives” (Egyt Gyogyszervegyeszeti Gyar, priority 1973, dated 1976).
Where a name gives a salt, the structure may show the parent alone. Read-outs that look alike come from different tables or passages of the source.

How the values were obtained:
[1] = tested on: immobilisation ulcer; assay: immobilisation ulcer inhibition, method of Borsi et al.; assay type: in vivo; settings: po, rat, p.o., read-out: Ulcer-inhibiting effect ED50, immob.
Procedure: (§1) All experiments were carried out on rats.

[2] = tested on: ileum; settings: rat
Procedure: (§2) The effects of the new compounds exerted on the gastric acid secretion and Shay ulcer was examined according to the method of H. Shay et al. (Gastroenterology 5, 43/1945/), while their inhibition effect exerted on immobilisation and insuline ulcer was tested according to the method of Borsi et al. (Acta Pharm. Hung. 38, 151 /1968/). […] All experiments were carried out on rats. As reference substance, methantheline (diethyl-/2-hydroxyethyl/-methylammonium bromide xanthene-9-carboxylate) was used.

[3] = tested on: gastric acid secretion; assay: inhibition of gastric juice secretion, method of H. Shay et al.; assay type: in vivo; settings: po; rat
Procedure: as §1

[4] = acute toxicity; settings: in vivo, rat
Procedure: as §1

[5] = in vivo; settings: rat
Procedure: as §2

[6] = tested on: Shay ulcer; assay: Shay ulcer-inhibiting effect, method of H. Shay et al.; assay type: in vivo; settings: po, rat
Procedure: as §1

[7] = tested on: insuline ulcer; assay: insulin ulcer inhibition, method of Borsi et al.; assay type: in vivo; settings: po, rat, p.o., read-out: Ulcer-inhibiting effect ED50, insulin
Procedure: as §1

[8] = ip, i.p., read-out: Acute toxicity LD50, i.p.
[9] = po, p.o., read-out: Acute toxicity LD50, p.o.

Compound	ED50 [1]	Anticholinergic effect, ED50, ileum [2]	ED50 [3]	LD50 [4, 8]	LD50 [4, 9]	ED50 [5]	ED50 [6]	ED50 [7]
O=C(CNC1CC1)Nc1nc(-c2cccnc2)cs1 [Example 2, 2-cyclopropylamino-acetamido-4-(3'-pyridyl)-thiazole]	27 mg/kg	> 1 gamma	8 mg/kg	310 mg/kg	420 mg/kg	> 100 mg/kg	40 mg/kg	6 mg/kg
CCNCC(=O)Nc1nc(-c2cccnc2)cs1 [Example 4, 2-(Ethylamino-acetamido)-4-(3'-pyridyl)-thiazole]	40 mg/kg	> 1 gamma	16 mg/kg	240 mg/kg	550 mg/kg	> 100 mg/kg	> 40 mg/kg	12 mg/kg
CCN(CC)CC(=O)Nc1nc(-c2cccnc2)cs1 [Example 5, 2-(Diethylamino-acetamido)-4-(3'-pyridyl)-thiazole]	40 mg/kg	> 1 gamma	40 mg/kg	460 mg/kg	1400 mg/kg	> 100 mg/kg	> 40 mg/kg	> 40 mg/kg
O=C(CNCc1ccccc1)Nc1nc(-c2cccnc2)cs1 [Example 8, 2-(Benzylamino-acetamido)-4-(3'-pyridyl)-thiazole]		> 1 gamma	20 mg/kg	> 1000 mg/kg	1000 mg/kg	> 100 mg/kg	> 40 mg/kg	
O=C(CNc1ccccc1)Nc1nc(-c2cccnc2)cs1 [Example 16, 2-(Phenylamino-acetamido)-4-(3'-pyridyl)-thiazole]	> 40 mg/kg	> 1 gamma	> 40 mg/kg	> 1000 mg/kg	> 2000 mg/kg	> 100 mg/kg	> 40 mg/kg	> 40 mg/kg
O=C(CN1CCCCC1)Nc1nc(-c2cccnc2)cs1 [Example 17, 2-(Pentamethyleneimino-acetamido)-4-(3'-pyridyl)-thiazole]	> 40 mg/kg	> 1 gamma	> 40 mg/kg	650 mg/kg	1300 mg/kg	> 100 mg/kg	> 40 mg/kg	> 40 mg/kg
O=C(CN1CCOCC1)Nc1nc(-c2cccnc2)cs1 [Example 18, 2-(4'-Morpholino-acetamido)-4-(3"-pyridyl)-thiazole]		> 1 gamma	> 40 mg/kg	> 1000 mg/kg	1300 mg/kg	> 100 mg/kg	> 40 mg/kg	
O=C(CN1CCCCCCC1)Nc1nc(-c2cccnc2)cs1 [Example 19, 2-(Heptamethyleneimino-acetamido)-4-(3'-pyridyl)-thiazole]		> 1 gamma	> 40 mg/kg	> 1000 mg/kg	> 2000 mg/kg	> 100 mg/kg	> 40 mg/kg	
CC(C)CNCC(=O)Nc1nc(-c2cccnc2)cs1 [Example 24, 2-(Isobutylamino-acetamido)-4-(3'-pyridyl)-thiazole dihydrochloride]	> 40 mg/kg	> 1 gamma	23 mg/kg	200 mg/kg	350 mg/kg	> 100 mg/kg	> 40 mg/kg	20 mg/kg
CCCCCCNCC(=O)Nc1nc(-c2cccnc2)cs1 [Example 27, 2-(n-Hexylamino-acetamido)-4-(3'-pyridyl)-thiazole dihydrochloride]	25 mg/kg	> 1 gamma	30 mg/kg	300 mg/kg	450 mg/kg	> 100 mg/kg	50 mg/kg	20 mg/kg
CCCCCCCCNCC(=O)Nc1nc(-c2cccnc2)cs1 [Example 28, 2-(n-Octylamino-acetamido)-4-(3'-pyridyl)-thiazole dihydrochloride]		> 1 gamma	40 mg/kg	200 mg/kg	800 mg/kg	> 100 mg/kg	> 40 mg/kg	
Cc1sc(NC(=O)CNC2CC2)nc1-c1cccnc1 [Example 31, 2-cyclopropylamino-acetamido-4-(3'-pyridyl)-5-methyl-thiazole dihydrochloride]	30 mg/kg	> 1 gamma	19 mg/kg	500 mg/kg	1000 mg/kg	> 100 mg/kg	50 mg/kg	20 mg/kg
Cc1sc(NC(=O)CNCCO)nc1-c1cccnc1 [Example 32, 2-(2'-hydroxyethylamino-acetamido)-4-(3"-pyridyl)-5-methyl-thiazole]	> 40 mg/kg	> 1 gamma	35 mg/kg	400 mg/kg	> 1500 mg/kg	> 100 mg/kg	> 40 mg/kg	> 40 mg/kg
O=C(CNC1CC1)Nc1nc(-c2ccncc2)cs1 [Example 33, 2-cyclopropylamino-acetamido-4-(4'-pyridyl)-thiazole dihydrochloride]		> 1 gamma	20 mg/kg	600 mg/kg	900 mg/kg	> 100 mg/kg		
CC[N+](C)(CC)CCOC(=O)C1c2ccccc2Oc2ccccc21 [Methantheline, diethyl-/2-hydroxyethyl/-methylammonium bromide xanthene-9-carboxylate, reference compound]	20.7 mg/kg	3×10^-^5 gamma	20 mg/kg	76 mg/kg	320 mg/kg	17 mg/kg	15.2 mg/kg	11.5 mg/kg
